Columns and labels:
Experiment in all cases: area under concentration-response curve (viability) (AUC (a.u.)); higher = less active
Details in all cases: 48 h
NCI-H295R = system: NCI-H295R
Procedure, shortened: (§1)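 Three adrenocortical carcinoma cell lines were seeded at 500–1,000 cells/well in 5 µL medium in 1,536-well plates. 23 nL of each MIPE 5.0 library compound was added at 11 concentrations. After 48 h (per the protocol name), CellTiter-Glo was added for 15 minutes at room temperature and luminescence was read. Signals were normalised per plate to vehicle and empty-well controls. AC50 and area under the curve came from fitted concentration-response curves, keeping only inhibitory or non-responding curve classes.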

CU-ACC2 = system: CU-ACC2
Procedure, shortened: as §1

CU-ACC1 = system: CU-ACC1
Procedure, shortened: as §1

Row | Structure (SMILES) | area under concentration-response curve (NCI-H295R) | area under concentration-response curve (CU-ACC2) | area under concentration-response curve (CU-ACC1)
1 | COCC(=O)NC/C=C/c1ccc2ncnc(Nc3ccc(Oc4ccc(C)nc4)c(C)c3)c2c1 | 552 | 613 | 522
2 | CN1\C(=C([O-])/C2=CC=CC=C2[S+]1([O-])=O)C(=O)NC3=NC=C(C)S3 | 525 | 572 | 479
3 | CN[C@@H](C)C(=O)N[C@H](C(=O)N1CCC[C@H]1C(=O)Nc1sc(-c2ncco2)nc1-c1ccccc1)C1CCCCC1 | 461 | 530 | 457
4 | C[C@H]1COC2=C3N1\C=C(C(O)=O)/C(=O)C3=CC(=C2N4CCN(C)CC4)F | 595 | 650 | 522
5 | COc1ccc(Nc2nccc(NCCO)n2)cc1 | 517 | 578 | 496
6 | CC(C[N+](C)(C)C)OC(N)=O (configuration not stated) | 591 | 662 | 569
7 | CC(C)(F)C[C@H](N[C@@H](c1ccc(-c2ccc([S+](C)(=O)[O-])cc2)cc1)C(F)(F)F)C(=O)NC1(C#N)CC1 | 527 | 587 | 481
8 | NCCCCCC(=O)O | 540 | 585 | 509
9 | C[N]1C=C(C2=C1C=CC=C2)\C3=C(\C(=O)NC3=O)C4=C5CC(CN)CC[N]5C6=C4C=CC=C6 (configuration not stated) | 559 | 620 | 517
10 | C[C@H](Nc1ncnc2[nH]cnc12)c1cc2ccc(F)cc2nc1-c1ccccn1 | 512 | 571 | 466
11 | N[S+](=O)([O-])c1cc2c(cc1Cl)NCN[S+]2(=O)[O-] | 430 | 563 | 480
12 | C#C[C@]1(O)CC[C@H]2[C@@H]3CCc4cc(OC)ccc4[C@H]3CC[C@@]21C | 457 | 475 | 414
13 | CCC(=O)N1CCOc2c(cc(-c3cc(OC)cc(OC)c3)cc2C(=O)N[C@H]2CCCN(C)C2)C1 | 463 | 550 | 500
14 | N[C@@H](Cc1ccc(O)c(O)c1)C(=O)O | 534 | 612 | 503
15 | C[C@]12CC[C@H]3[C@@H](C\C=C/4C[C@@H](O)CC[C@]34C)[C@@H]1CCC2=O | 479 | 591 | 523
16 | O=C1O[C@]2(CC[C@@H](C(=O)Nc3ccn(-c4ccccc4F)n3)CC2)c2cnccc21 | 494 | 602 | 492
17 | CN1CCN(C(=O)c2ccc(-c3ccc4c(C=O)c(O)ccc4c3)s2)CC1 | 556 | 612 | 499
18 | O=C(/C=C/c1ccc(/C=C/C(=O)Nc2ccc(C3=NCCN3)cc2)cc1)Nc1ccc(C2=NCCN2)cc1 | 613 | 610 | 635
19 | CC(=O)N1CCC[C@H]1C(=O)N[C@@H](Cc1c[nH]cn1)C(=O)N[C@@H](CO)C(=O)N[C@@H](CS)C(=O)N[C@@H](CC(N)=O)C(N)=O | 498 | 527 | 382
20 | COc1cccc(Nc2ncnn3ccc(CN4CC[C@@H](N)[C@H](O)C4)c23)c1 | 552 | 534 | 399
21 | CNC[C@H](O)c1cccc(O)c1 | 449 | 508 | 440
22 | C[N]1C2=C(SC(=C2)[S+](C)[O-])C\3=C1C(=O)N(CC4=CC(=CC=C4)N)\N=C3 (configuration not stated) | 468 | 511 | 363
23 | C[C@H]1O[C@H]([C@H](O)[C@@H]1O)N2\C=C(F)/C(=O)NC2=O | 550 | 621 | 559
24 | C[C@@H]1CN(Cc2ccc(F)cc2)[C@@H](C)CN1C(=O)c1cc2c(C(=O)C(=O)N(C)C)cn(C)c2cc1Cl | 552 | 634 | 515
25 | N[C@@H](CCC(=O)O)C(=O)N[C@@H](Cc1c[nH]c2ccccc12)C(=O)O | 519 | 584 | 493
26 | C[C@H](CCC(=O)O)[C@H]1CC[C@H]2[C@@H]3[C@H](O)C[C@@H]4C[C@H](O)CC[C@]4(C)[C@H]3CC[C@]12C | 485 | 558 | 477
27 | Cc1cc(/C=c2/sc3nc4ccccc4n3c2=O)c(C)n1-c1ccccc1 | 549 | 625 | 569
28 | C\C1=C(\C=C(\C#N)C(=O)N1)C2=CC=NC=C2 | 543 | 515 | 532
29 | C=CC(=O)Nc1cc(N2CCN(CC)CC2)ccc1Nc1cc(N(C)C(=O)Nc2c(Cl)c(OC)cc(OC)c2Cl)ncn1 | 495 | 566 | 537

— the supplement of paper PMC10949913
